Results reported in paper PMC11111404, “Discovery of potent small-molecule inhibitors of lipoprotein(a) formation” (Nature, 2024).
Where “and” joins values, the source holds several entries; their conditions need not be identical. Identical values can stand only once.

Tested on: Lp(a)
Assay: Lp(a) levels in cynomolgus monkeys
Type: in vivo, cynomolgus monkey (Macaca fascicularis)
Parameters: key to Mean_pCFB_vs_Veh / Mean_pCFB_vs_Veh (Lp(a)): % change from pre-dose, treated group compared with vehicle; key to Mean_pCFB / Mean_pCFB (Lp(a)): % change in Lp(a) from before dosing; Lp(a): unit not given here
Details: cynomolgus monkey; for Mean_pCFB_vs_Veh (Lp(a)): difference vs vehicle; for Mean_pCFB (Lp(a)): group mean; for Lp(a) / pCFB (Lp(a) pct_chng_from_baseline): individual animals, 1 mg/kg
Experimental: Female or male Chinese Macaca fascicularis cynomolgus monkeys (as described in the figure legends) of unspecified ages with body weight ranging from 2.0 kg to 5.0 kg were housed in cages with a standard light cycle (12-h light, 12-h dark) at room temperature (20–26 °C); the relative humidity ranged from 30% to 70%. Monkeys were given fruits, vegetables or dietary enrichment as a form of environmental enrichment, and various cage enrichment devices. Purina Lab diet 5048C was provided BID and individual monkeys were identified by cage card. The monkeys were randomized to treatment groups by body weight and baseline plasma Lp(a) concentration, as determined by a commercially available Randox assay (Randox LP2757), using a BRAT for the study. In an example cynomolgus monkey study in which 39 monkeys were prescreened for baseline Lp(a) levels, the average Lp(a) level was 350 ± 57 µg ml^−1 (range 53–1,667 µg ml^−1). Monkeys were dosed orally with vehicle (purified water) or compounds QD or BID for 14 days, at dose levels and frequencies as previously described for each compound. Plasma samples were collected on days before dosing to establish baseline Lp(a) and after the morning dose during the study. Lp(a) levels were measured by an investigator who was blinded to group allocation using the Randox assay, and were quantified relative to the calibrator series (Randox LP3404). Data were analysed in GraphPad Prism v.9.5.1. The Lp(a) percentage change from before dosing in non-human primates was analysed by repeated measures ANOVA in SAS v.9.4 (SAS). At each time point, the Lp(a) percentage change for each treated group was compared with vehicle by the Bonferroni method.

## O=C(O)[C@@H](Cc1cccc(CN(Cc2cccc(C[C@H](C(=O)O)[C@H]3CCNC3)c2)Cc2cccc(C[C@H](C(=O)O)[C@H]3CCNC3)c2)c1)[C@H]1CCNC1 [LY3473329]
1mpk, D01
  Mean_pCFB_vs_Veh (Lp(a)): 4.27
  Mean_pCFB (Lp(a)): -0.85
1mpk, D03
  Mean_pCFB_vs_Veh (Lp(a)): -6.51
  Mean_pCFB (Lp(a)): -12.33
1mpk, D05
  Mean_pCFB_vs_Veh (Lp(a)): -6.39
  Mean_pCFB (Lp(a)): -14.05
1mpk, D09
  Mean_pCFB_vs_Veh (Lp(a)): -13.72
  Mean_pCFB (Lp(a)): -21.85
1mpk, D14
  Mean_pCFB_vs_Veh (Lp(a)): -22.18
  Mean_pCFB (Lp(a)): -34.04
10mpk, D01
  Mean_pCFB_vs_Veh (Lp(a)): 3.91
  Mean_pCFB (Lp(a)): -1.2
10mpk, D03
  Mean_pCFB_vs_Veh (Lp(a)): -29.92
  Mean_pCFB (Lp(a)): -35.74
10mpk, D05
  Mean_pCFB_vs_Veh (Lp(a)): -32.94
  Mean_pCFB (Lp(a)): -40.6
10mpk, D09
  Mean_pCFB_vs_Veh (Lp(a)): -36.99
  Mean_pCFB (Lp(a)): -45.13
10mpk, D14
  Mean_pCFB_vs_Veh (Lp(a)): -48.11
  Mean_pCFB (Lp(a)): -59.97
100mpk, D01
  Mean_pCFB_vs_Veh (Lp(a)): -15.98
  Mean_pCFB (Lp(a)): -21.09
100mpk, D03
  Mean_pCFB_vs_Veh (Lp(a)): -38.35
  Mean_pCFB (Lp(a)): -44.17
100mpk, D05
  Mean_pCFB_vs_Veh (Lp(a)): -32.35
  Mean_pCFB (Lp(a)): -40.01
100mpk, D09
  Mean_pCFB_vs_Veh (Lp(a)): -50.18
  Mean_pCFB (Lp(a)): -58.32
100mpk, D14
  Mean_pCFB_vs_Veh (Lp(a)): -61.77
  Mean_pCFB (Lp(a)): -73.62
1mpk group, Day 1, Pre dose (baseline)
  Lp(a): 115.019 and 15.737 and 53.63 and 67.735 and 63.938
1mpk, Day 1, 4hr
  Lp(a): 97.491 and 117.597 and 16.395 and 53.808 and 66.137 and 65.184
1mpk, Day 1
  pCFB (Lp(a) pct_chng_from_baseline): -11.4161 and 2.241 and 4.181 and 0.3319 and -2.359 and 1.949
1mpk, Day 3, 4hr
  Lp(a): 91.721 and 112.368 and 11.704 and 47.474 and 63.489 and 56.499
1mpk, Day 3
  pCFB (Lp(a) pct_chng_from_baseline): -16.6589 and -2.305 and -25.6275 and -11.4787 and -6.269 and -11.6347
1mpk, Day 5, 4hr
  Lp(a): 85.692 and 109.155 and 11.192 and 45.131 and 70.165 and 53.752
